Where two headings read alike, the source gives them in different places.
Tests used:
Assay in all cases: whole plant or invertebrate
Format in all cases: in vivo
[1] = test system: green peach aphid (Myzus persicae Sulzer); conditions: Myzus persicae, in Raphanus sativus
Protocol: (§1) The pest control protection afforded by the mixtures or compositions is not limited, however, to these species. The analysis of synergism or antagonism between the mixtures or compositions was determined using Colby's equation. The average % mortality data for the test compounds alone were inserted into the Colby's equation. If the observed average % mortality was higher than “p”, the expected % mortality, the mixture or composition had synergistic effects. If the observed average % mortality was equal to or lower than the expected mortality, the mixture or composition either had no synergistic effect or an antagonistic effect. In these tests, Compound 1 is the compound of Formula 1.
(§2) Test compounds were formulated using a solution containing 10% acetone, 90% water and 300 ppm X-77® Spreader Lo-Foam Formula non-ionic surfactant containing alkylarylpolyoxyethylene, free fatty acids, glycols and isopropanol (Loveland Industries, Inc.) to provide the desired concentration in ppm. Formulated test solutions were then applied in 1 mL volumes through a SUJ2 atomizer nozzle with ⅛ JJ custom body (Spraying Systems Co.) positioned 1.27 cm (0.5 inches) above the top of each test unit.
(§3) For evaluating control of green peach aphid (Myzus persicae Sulzer) through contact and/or systemic means, each test unit consisted of a small open container with a 12- to 15-day-old radish plant inside. This was pre-infested by placing on a leaf of the test plant 30 to 40 aphids on a piece of leaf excised from a culture plant (cut-leaf method). The larvae moved onto the test plant as the leaf piece desiccated. After pre-infestation, the soil of the test unit was covered with a layer of sand.
(§4) Test compounds were formulated and sprayed as described in Test A, replicated three times. After spraying of the formulated test compound, each test unit was allowed to dry for 1 hour and then a black, screened cap was placed on top. The test units were held for 6 days in a growth chamber at 19-21° C. and 50-70% relative humidity.

[2] = test system: diamondback moth (Plutella xylostella)
Protocol: as §1
For evaluating control of diamondback moth (Plutella xylostella), cabbage (var. Stonehead) plants were grown in Metromix potting soil in 10-cm pots in aluminum trays to test size (28 days, 3-4 full leaves) the plants were sprayed to the point of runoff using the turntable sprayer as described in Test I. Test compounds were formulated and sprayed on test plants as described for Test I. After drying for 2 hours, the treated leaves were excised and infested with one cabbage looper per cell and covered. The test units were placed on trays and put in a growth chamber at 25° C. and 60% relative humidity for 4 days.

[3] = test system: silverleaf whitefly (Bemisia argentifolii Bellows and Perring); conditions: Bemisia argentifolii, in Gossypium hirsutum, read-out: % Mortality (observed)
Protocol: as §1
For evaluating control of silverleaf whitefly (Bemisia argentifolii Bellows and Perring) through contact and/or systemic means, each test unit consisted of a small open container with a 12- to 14-day-old cotton plant inside. This was pre-infested by placing test units into cages infested with adult whiteflies so that oviposition on the cotton leaves could occur. The adults were removed from the plants with an air-blast nozzle, and the test units were capped. The test units were then stored 2 to 3 days before spraying.
as §2
The results for all experimental compositions in this test were replicated three times. After spraying of the formulated test composition, each test unit was allowed to dry for 1 hour and the cap removed. The test units were held for 13 days in a growth chamber at 28° C. and 50-70% relative humidity.

[4] = test system: western flower thrip (Frankliniella occidentalis Pergande); conditions: Frankliniella occidentalis
Protocol: as §1, §2
For evaluating control of the western flower thrip (Frankliniella occidentalis Pergande) through contact and/or systemic means, each test unit consisted of a small open container with a 5- to 7-day-old bean (var. Soleil) plant inside.
Test solutions were formulated and sprayed with 3 replications as described for Test A. After spraying, the test units were allowed to dry for 1 hour, 22 to 27 adult thrips were added to each unit and then a black, screened cap was placed on top. The test units were held for 7 days at 25° C. and 45-55% relative humidity.

[5] = test system: cotton melon aphid (Aphis gossypii Glover); conditions: Aphis gossypii
Protocol: as §1, §2
as §3, with “cotton melon” for “green peach”, “(Aphis gossypii Glover)” for “(Myzus persicae Sulzer)”, “6-” for “12-”, “7-day-old cotton” for “15-day-old radish”
as §4, with “described for” for “described in”, “Test A. The applications were” for “Test A,”, “test compounds,” for “test compound,”

[6] = test system: potato leafhopper (Empoasca fabae Harris); conditions: Empoasca fabae, Imidacloprid 0 ppm, read-out: % Mortality (observed)
Protocol: as §1, §2
For evaluating control of potato leafhopper (Empoasca fabae Harris) through contact and/or systemic means, each test unit consisted of a small open container with a 5- to 6-day-old Longio bean plant (primary leaves emerged) inside. White sand was added to the top of the soil, and one of the primary leaves was excised prior to application. Test compounds were formulated and sprayed with 3 replications as described for Test A. After spraying, the test units were allowed to dry for 1 hour before they were infested with 5 potato leafhoppers (18- to 21-day-old adults). A black, screened cap was placed on the top of each container. The test units were held for 6 days in a growth chamber at 19-21° C. and 50-70% relative humidity.

[7] = rate 0.5 ppm, read-out: % mortality (obs)
[8] = rate 2 ppm, read-out: % mortality (obs)

SMILES: CNC(=O)c1cc(C#N)cc(C)c1NC(=O)c1cc(Br)nn1-c1ncccc1Cl [Compound 1, 3-bromo-N-[4-cyano-2-methyl-6-[(methylamino)carbonyl]phenyl]-1-(3-chloro-2-pyridinyl)-1H-pyrazole-5-carboxamide]
- mortality at 0.5 ppm ([1]; 0.5 ppm, read-out: % Mortality (observed)): 14%
- mortality at 1.1 ppm ([1]; 1.1 ppm, read-out: % Mortality (observed)): 22%
- mortality at 2.1 ppm ([1]; 2.1 ppm, read-out: % Mortality (observed)): 49%
- mortality at 0.5 ppm [1, 7]: 21%
- mortality at 1 ppm ([1]; rate 1 ppm, read-out: % mortality (obs)): 35%
- mortality at 2 ppm [1, 8]: 71%
- mortality at 0.005 ppm ([2]; Plutella xylostella, in Brassica oleracea, rate 0.005 ppm, read-out: % mortality (obs)): 86%
- mortality at 0.02 ppm ([2]; Plutella xylostella, in Brassica oleracea, rate 0.02 ppm, read-out: % mortality (obs)): 87%
- mortality at 0.08 ppm ([2]; Plutella xylostella, in Brassica oleracea, rate 0.08 ppm, read-out: % mortality (obs)): 94%
- % mortality ([2]; rate 0.02): 83%
- % mortality ([2]; rate 0.08): 90%
- mortality at 7 ppm ([3]; Compound 1 7 ppm alone): 58%
- mortality at 9 ppm ([3]; Compound 1 9 ppm alone): 69%
- mortality at 12 ppm ([3]; Compound 1 12 ppm alone): 72%
- mortality at 0.3 ppm ([4]; Compound 1 0.3 ppm alone, read-out: % Mortality (observed)): 25%
- mortality at […] ([4]; Compound 1 1.3 ppm alone, read-out: % Mortality (observed)): 55%
- mortality at 6 ppm ([4]; Compound 1 6 ppm alone, read-out: % Mortality (observed)): 72%
- mortality at 0.3 ppm ([4]; rate 0.3 ppm, read-out: % mortality (obs)): 42%
- mortality at […] ([4]; rate 1.5 ppm, read-out: % mortality (obs)): 50%
- mortality at 6 ppm ([4]; rate 6 ppm, read-out: % mortality (obs)): 61%
- mortality at 0.08 ppm ([5]; Compound 1 0.08 ppm, read-out: % Mortality (observed)): 15%
- mortality at 0.4 ppm ([5]; Compound 1 0.4 ppm, read-out: % Mortality (observed)): 18%
- mortality at 1.8 ppm ([5]; Compound 1 1.8 ppm, read-out: % Mortality (observed)): 66%
- mortality at 0.1 ppm ([5]; rate 0.1 ppm, read-out: % mortality (obs)): 22%
- mortality at 0.5 ppm [5, 7]: 37%
- mortality at 2 ppm [5, 8]: 76%
- mortality at 0.3 ppm ([6]; Compound 1 0.3 ppm): 0%
- mortality at 2.3 ppm ([6]; Compound 1 2.3 ppm): 0%
- mortality at 18 ppm ([6]; Compound 1 18 ppm): 100%

Source: patent publication US20090104145A1, “Mixtures of Anthranilamide Invertebrate Pest Control Agents” (priority 2004, published 2009)
